Results from patent publication EP1046400B1, “Use of an Equine herpes virus type-4 thymidine kinase and a nucleoside analog selected from ganciclovir and acyclovir for the killing of human proliferative cells” (Université Pierre et Marie Curie (Paris VI), priority 1999, dated 2000).

Legend:
[1] = tested on: tk(-) 3T3 cells expressing EHV4-TK/E-GFP fusion protein; assay: GCV toxicity, viability assay (Figure 5-B); assay type: cell-based, murine; conditions: Mus musculus, NIH3T3
Experimental: (§1) (A) E-GFP expression in tk(-) 3T3 transfected and non-transfected cells. EHV4-TK gene fused with E-GFP gene (Figure 1-B) was transfected in tk(-) 3T3 cells, and E-GFP positive cells were detected by FACS analysis. Expression of E-GFP was determined a week after transfection (1) and after 2 months of culture in HAT medium (2). (B) GCV toxicity in transfected and non-transfected cells. Results were expressed as % of viable cells compared to cells grown without GCV.
(§2) Parental and viral-TK expressing cells were plated at 5x10^3 per wells in 6-wells dishes. After 24 h, drugs was added to the medium at various concentrations ranging from 0.01 to 100 µM. Medium containing drugs was changed every 2 days. After 7 days of culture, cell viability was assayed by counting viable cells by trypan blue exclusion after 7 days of culture with GCV.
(§3) To facilitate the transgene detection in transfected cells or tissues, the E-GFP gene was fused in frame at the 3' end of the EHV4-TK gene and cloned into an expression vector (Figure 1-B). This construction was then transfected into tk(-) 3T3 cells, followed by FACS analysis of E-GFP positive cells. A cell bulk containing 95% of E-GFP expressing cells was obtained. […] Expression of the EHV4-TK/E-GFP fusion protein efficiently sensitized these cells to GCV for which the IC50 was 0.6 µM, compared to 30 µM for tk(-) 3T3 cells (Figure 5-B).

[2] = 10 mg/kg twice a day, humans (refs 34, 35); cited from earlier work
[3] = tested on: HSV1-TK expressing tk(-) 3T3 cells (bulk); assay: Cytotoxicity assay, bulk transfected tk(-) 3T3 cells; assay type: cell-based, murine; conditions: for Selectivity Index: IC50 ratio of parental to HSV1-TK transfected cells (bulk); for IC50: Mus musculus, NIH3T3, 168 h
Experimental: (§4) Cells were transfected by the various plasmids using a calcium phosphate precipitation kit (GibcoBRL). After 48 h of phenotypic expression, cells were grown in selective medium with zeocin (Cayla, Toulouse, France): 25 µg/ml (3T3 cells), 50 µg/ml (143 B cells) or 100 µg/ml (PANC-O2 and HCT 116 cells).
(§5) Cells were seeded at 2.5x10^3 per wells in 24-wells plates. 24 h later they were grown in drug-containing medium for 7 days. Drug concentrations ranging from 0.001 nM to 100 µM were tested in triplicate. The medium was changed with fresh DMEM every 2 days. On day 6, 1.5 µCi of [methyl-^3H]thymidine (Amersham, UK) was added per well. After washes with phosphate-buffered saline (PBS pH 7.3), incorporated radioactivity was determined with a Micro-Beta Plus counter (EG&G Instruments and Wallac, Turku, Finland).
(§6) Drug toxicity was assessed by measuring inhibition of cell proliferation. Cells were grown in drug-containing medium for 7 days. [methyl-^3H]-thymidine was added at day 6 and incorporated radioactivity was measured.

[4] = tested on: EBV-TK expressing tk(-) 3T3 cells (bulk); assay: as above; assay type: cell-based, murine; conditions: for Selectivity Index: IC50 ratio of parental to EBV-TK transfected cells (bulk); for IC50: Mus musculus, NIH3T3, 168 h
Experimental: as §4, §5, §6

[5] = tested on: human tk(-) 143B cells transfected with HSV1- or EHV4-TK; assay: Cytotoxic activity on human cell bulks, EHV4-TK compared with HSV1-TK (Figure 3); assay type: cell-based; conditions: human tk(-) 143B cell bulks
Experimental: Toxicity is presented as mean of IC50 values ± SD. The means, determined on 3 independent experiments, are indicated on the top of each histogram.
as §5
Human tk(-) osteosarcoma 143B cell bulks expressing HSV1- or EHV4-TK were thus generated. We first analyzed the herpesvirus-TK protein expression levels for each cell bulks by […] using polyclonal antibodies against Sh protein (Figure 2-B). There was no detectable band corresponding to fused protein in tk(-) 143B cell extracts.

NIH-3T3 = assay: Cytotoxicity assay (inhibition of [methyl-3H]thymidine incorporation), parental cells; assay type: cell-based, murine; conditions: Mus musculus, parental NIH-3T3
Experimental: as §5, §6

[6] = tested on: EHV4-TK expressing HCT116 cells; assay: Cytotoxicity assay, colonic carcinoma cells; assay type: cell-based, human
Experimental: as §5

[7] = tested on: HSV1-TK expressing HCT116 cells; assay: Cytotoxicity assay, colonic carcinoma cells; assay type: cell-based, human
Experimental: as §5

[8] = tested on: EHV4-TK expressing PANC-O2 cell bulk; assay: Cytotoxicity assay, pancreatic tumor cell bulk; assay type: cell-based, murine
Experimental: as §5

[9] = tested on: HSV1-TK expressing PANC-O2 cell bulk; assay: Cytotoxicity assay, pancreatic tumor cell bulk; assay type: cell-based, murine; conditions: Mus musculus, means of two independent experiments
Experimental: as §5

tk(-) 3T3 cells = assay: GCV toxicity, viability assay (Figure 5-B), non-transfected cells; assay type: cell-based, murine; conditions: Mus musculus, NIH3T3; non-transfected tk(-) 3T3; % viable cells
Experimental: as §1, §2, §3

HCT116 cells = assay: Cytotoxicity assay, colonic carcinoma cells, parental; assay type: cell-based; conditions: Homo sapiens, HCT-116, mean
Experimental: as §5

[10] = tested on: VZV-TK expressing tk(-) 3T3 cells (bulk); assay: Cytotoxicity assay, bulk transfected tk(-) 3T3 cells; assay type: cell-based, murine; conditions: for Selectivity Index: IC50 ratio of parental to VZV-TK transfected cells (bulk); for IC50: Mus musculus, NIH3T3, 168 h
Experimental: (§7) Cells were transfected by the various plasmids using a calcium phosphate precipitation kit (GibcoBRL).
as §5, §6

[11] = tested on: EHV4-TK expressing tk(-) 3T3 cells (bulk); assay: as above; assay type: cell-based, murine; conditions: for Selectivity Index: IC50 ratio of parental to EHV4-TK transfected cells (bulk); for IC50: Mus musculus, NIH3T3, 168 h
Experimental: as §7, §5, §6

[12] = tested on: murine tk(-) 3T3 EHV4-TK expressing clones; assay: Cytotoxicity assay, TK expressing clones; assay type: cell-based; conditions: for Selectivity Index: IC50 ratio of parental to EHV4-TK clones; for IC50: Mus musculus
Experimental: as §5
(§8) Drug sensitivity of TK expressing clones were tested as described in Table 1.

[13] = tested on: murine tk(-) 3T3 HSV1-TK expressing clones; assay: Cytotoxicity assay, TK expressing clones; assay type: cell-based; conditions: for Selectivity Index: IC50 ratio of parental to HSV1-TK clones; for IC50: Mus musculus, Table 2, HSV1-TK clones, mean of 3 experiments
Experimental: as §5, §8

[14] = NIH3T3, 168 h, Table 1, 7 days drug, mean of 2 experiments
[15] = NIH3T3, Table 2, mean of 3 experiments

SMILES | Selectivity Index [3] | IC50 [3] [nM] | Selectivity Index [4] | IC50 [4] [nM] | toxicity / sensitivity in EHV4-TK compared with HSV1-TK expressing cells [5] | IC50 (NIH-3T3; [14]) [nM] | IC50 (NIH-3T3; [15]) [nM] | Selectivity Index [10] | IC50 [10] [nM] | Selectivity Index [11] | IC50 [11] [nM] | Selectivity Index [12] | IC50 [12] [nM] | Selectivity Index [13] | IC50 [13] [nM] | also measured
Nc1nc2c(ncn2COC(CO)CO)c(=O)[nH]1 [GCV, 9-(1,3-dihydroxy-2-propoxymethyl)guanine] | 350 | 200 | 12 | 6000 | approximately twelve fold more sensitive | 70000 | 36700 | 9 | 8000 | 700 | 100 | 612 | 60 | 230 | 160 | IC50 [1]: 600 nM; cerebral spinal fluid (CSF) concentrations, fold lower than plasmatic [2]: approximately 3 fold; fold more sensitive than HCT116 cells ([6]; EHV4-TK expressing vs parental HCT116): 485 fold; IC50 fold lower for EHV4-TK than for HSV1-TK expressing cells ([6]; HCT116): 3 fold; IC50 ([6]; Homo sapiens, HCT-116, EHV4-TK HCT116, means ± SD for 3 independent experiments): 110 ± 20 nM; fold more sensitive than HCT116 cells ([7]; HSV1-TK expressing vs parental HCT116): 170 fold; IC50 ([7]; Homo sapiens, HCT-116, HSV1-TK HCT116, means ± SD for 3 independent experiments): 320 ± 80 nM; IC50 ([8]; Mus musculus): 550 ± 70 nM; IC50 fold lower for EHV4-TK than for HSV1-TK expressing cell bulk ([8]; PANC-O2): 3 fold; IC50 [9]: 1700 ± 500 nM; IC50 (tk(-) 3T3 cells): 30000 nM; IC50 (HCT116 cells): 53400 ± 15000 nM
O=c1[nH]c(=O)n([C@H]2C[C@H](O)[C@@H](CO)O2)cc1/C=C/Br [BVDU, (E)-5-(2-bromovinyl)-2'-deoxyuridine] | 5500 | 15 | 1375 | 40 | greater in HSV1-TK than in EHV4-TK expressing cells | 55000 | 43300 | 2750 | 16 | 2750 | 20 | 1237 | 35 | 3331 | 13 | 
Nc1nc2c(ncn2COCCO)c(=O)[nH]1 [ACV, 9-(2-hydroxyethoxymethyl)guanine] |  | 8700 |  | 43300 |  | 165000 | 53300 |  |  |  |  |  |  |  | 15000 | 
